Values quoted from earlier work, collected in patent US6826488B1, “Crystals, molecular complexes, and methods of developing lead compounds for inhibitors of bacterial IMPDH” (The University of Chicago, priority 2000, dated 2004).

Columns and labels:
[1] = system: mammalian IMPDH enzymes; conditions: mammalian relative to bacterial IMPDH enzymes
[2] = target: bacterial IMPDH enzymes; conditions: bacterial enzymes inhibited by MPA only at very high concentrations

COc1c(C)c2c(c(O)c1C/C=C(\C)CCC(=O)O)C(=O)OC2 [MPA, Mycophenolic acid]
times more sensitive to inhibition (mammalian vs bacterial IMPDH enzymes) [1]: 10-100 times
Ki [2]: > 500 µM
